Experimental data taken from patent publication US12496355B2, “Method for treating a cancer and/or cancer metastasis” (NANO TARGETING & THERAPY BIOPHARMA INC., priority 2022, dated 2025).
Entries after “also recorded” stand apart in the source; their conditions may differ.

Key:
[1] = tested on: tumor angiogenesis on chicken embryo chorioallantoic membrane; assay: Chorioallantoic membrane (CAM) tumor model for angiogenesis; type: in vivo; details: administered on day 12, observed on days 14 and 16
Procedure: To evaluate the effect of MSNs on tumor angiogenesis, chicken embryo chorioallantoic membrane (CAM) tumor model was used. The fertilized eggs were incubated in the incubator for 10 days, then a small window was opened in the eggshell and the cancer cells were implanted on the CAM membrane near the aorta. MSN or Doxorubicin (DOX) was administered on day 12 when the tumor was formed and the angiogenesis near the tumor was observed on days 14 and 16.

[2] = tested on: luciferase-expressing HCT-116 cells; assay: Orthotopic colorectal cancer metastasis model, cells injected into cecum wall; details: 40 mg/kg twice per week, 8 administrations
Text: 2×10^6 luciferase-expressing HCT-116 cells were directly injected into the wall of the cecum with surgery to establish the orthotopic colorectal cancer metastasis model, this model spontaneously produces highly metastatic tumors in adjacent intestinal tissues, peritoneum, and distance metastasis (spleen, kidney, liver, and diaphragm). […] The tumor growth and metastasis were observed by the IVIS system once a week and body weight was observed over the study period. To assess overall survival, animals were monitored up to the point of spontaneous death or approaching moribund status.

SMILES | blood vessels near the tumor (angiogenesis) [1] | primary tumor growth and metastases (IVIS bioluminescence) [2]
COc1cccc2c1C(=O)c1c(O)c3c(c(O)c1C2=O)C[C@@](O)(C(=O)CO)C[C@@H]3O[C@H]1C[C@H](N)[C@H](O)[C@H](C)O1 [DOX, Doxorubicin] | blood vessels exhibited disintegration and decreased density | –
CCc1c2c(nc3ccc(OC(=O)N4CCC(N5CCCCC5)CC4)cc13)-c1cc3c(c(=O)n1C2)COC(=O)[C@]3(O)CC [IRI, irinotecan] | – | slower tumor growth rate compared to the control group; also recorded: inefficient inhibition of tumor growth and metastases
